{
  "source": "patent US4806564A",
  "about": "“Antihypercholesterolemic beta-lactones” (Merck & Co., Inc., priority 1987, dated 1989)",
  "data": [
    {"target": "T1, HMG-CoA synthase (Rattus norvegicus, UniProt P17425)", "T1 construct": "The HMG-CoA synthase was eluted from the column with 0.1 M phosphate buffer (pH 7.2); from tissue; host or cells: liver of male Charles River CD rats", "T1 sequence (P17425 1-520)": "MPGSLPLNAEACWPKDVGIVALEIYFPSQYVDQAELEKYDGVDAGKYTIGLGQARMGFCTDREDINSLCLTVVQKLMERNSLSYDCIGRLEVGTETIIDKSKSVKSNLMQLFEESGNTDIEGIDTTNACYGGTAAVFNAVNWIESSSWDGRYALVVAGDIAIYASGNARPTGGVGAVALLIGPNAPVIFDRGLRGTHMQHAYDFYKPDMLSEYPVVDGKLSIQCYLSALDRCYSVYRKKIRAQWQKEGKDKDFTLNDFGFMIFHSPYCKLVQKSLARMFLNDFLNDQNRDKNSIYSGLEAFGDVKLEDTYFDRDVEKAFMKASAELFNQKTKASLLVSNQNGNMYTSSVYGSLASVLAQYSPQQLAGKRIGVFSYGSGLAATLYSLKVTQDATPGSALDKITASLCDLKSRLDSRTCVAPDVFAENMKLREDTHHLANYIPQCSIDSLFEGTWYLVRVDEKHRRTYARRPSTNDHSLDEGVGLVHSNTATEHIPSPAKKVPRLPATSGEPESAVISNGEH", "assay": "HMG-CoA Synthase Inhibition Assay", "type": "biochemical", "conditions": "in vitro; HMG-CoA synthase purified from rat liver; 5 min preincubation with test compound at 30°, then 10 min with acetoacetyl-CoA and [14C]-acetyl-CoA", "experimental": "The intrinsic HMG-CoA synthase inhibition activity of the compounds of this invention is measured by the standard in vitro protocol described below:\nThe livers from male Charles River CD rats (225-350 g) were homogenized in 0.25 M sucrose which was adjusted with phenylmethylsulfonylfluoride (PMSF) and N-p-tosyl-1-lysine chloromethyl ketone (TLCK) so that the final concentration of each was […], respectively. The homogenate was centrifuged at 15,000× g for 20 minutes, the supernatant filtered through a fine nylon screen to remove most of the fat layer and recentrifuged at 100,000× g for 1 hour. This supernatant was removed and 1 M potassium phosphate, dithiothreitol (DTT) and ethylene glycol-bis(β-aminoethyl ether)-N,N,N',N'-tetracetic acid (EGTA) added to give a final concentration of 0.1 M (pH 7.2), 0.5 mM and 0.1 mM, respectively. Solid ammonium sulfate was added to 50% saturation to the protein solution, it was centrifuged at 15,000× g and the supernatant discarded. This precipitated protein could be stored at -70° C. for at least one month with very little loss of activity. The ammonium sulfate precipitate was dissolved in an minimal mount of 0.06 M potassium phosphate buffer (pH 7.2) containing 0.5 mM dithiothreitol and 0.1 mM EGTA (referred to as 0.06 M phosphate buffer) and dialyzed overnight against 2 liters of the same buffer to remove the ammonium sulfate and to inactivate HMG-CoA lyase [Clinkenbeard, et al., J. Biol. Chem. 250, 3108-3116(1975)].\nThe dialyzed extract was added to a column of DEAE-52 (Whatman) which had been equilibrated with 0.06 M phosphate buffer (10 mg of protein to 1 ml bed volume of the resin). The DEAE-cellulose was eluted with 0.06 M phosphate buffer until the optical density at 280 nm was essentially zero. This fraction contained the β-ketoacetyl-CoA thiolase activity. The HMG-CoA synthase was eluted from the column with 0.1 M phosphate buffer (pH 7.2) containing 0.5 mM DTT and 0.1 mM EGTA, and was virtually free of all thiolase activity. The protein was precipitated by the addition of ammonium sulfate to give 50% saturation. This solution was stirred for 10 minutes at 4° C. and the precipitate collected by centrifugation at 15,000 rpm for 10 minutes. The supernatant was discarded and the precipitate dissolved in a minimum of 0.06 M phosphate buffer, pH 7.2 (about 10 ml) and the enzyme stored at -80° C.\nEnzyme protein (ca. 24 mg) was added to a solution containing […] (pH 8.0), 11.7 μM MgCl2, 1.17 μM Ethylenediaminetetraacetic acid (EDTA), 0.58 μM dithiothreitol, and the indicated concentrations of the test compound (added as a 2 mg/ml solution in dimethylsulfoxide). The incubation took place in a volume of 0.085 ml at 30° in a shaking water bath. After 5 minutes, […] of a solution containing acetoacetyl-CoA and 0.1 μCi of 1-[^14 C]-acetyl-CoA was added to give a final concentrations of 0.1 and 0.4 μM, respectively. The incubation was continued for 10 more minutes and the reaction stopped by the addition of […] of the assay mixture to 0.2 ml of 6N HCl in a glass scintillation vial. The vial was heated for 1 hour at 120° after which time 0.2 ml more of 6N HCl was again added to each vial and the heating continued for another hour. Following this, 1.0 ml of 0.9% saline was added to each vial and finally 10 ml of scintillation liquid. Radioactivity was determined in a Packard Tri-Carb liquid scintillation counter.\nPercent inhibition is calculated by the formula: [formula]\nIC50 values were determined by plotting the log of the concentration of the test compound verses the percentage inhibition and fitting a straight line to the resulting data by using the least squares method.", "units": {"IC50": "nM"}, "values": [
      {"smiles": "C[C@H]1C(=O)O[C@@H]1CCCCCc1ccccc1", "note": "(relative stereo) [(CH2)5Ph, E-3-Methyl-4-(5-phenylpentyl)-2-oxetanone]", "IC50": 1400},
      {"smiles": "C[C@H]1C(=O)O[C@@H]1CCCCCCc1ccccc1", "note": "(relative stereo) [(CH2)6 Ph, E-3-Methyl-4-(6-phenylhexyl)-2-oxetanone]", "IC50": 1500},
      {"smiles": "C=CCCCCCCCC[C@@H]1OC(=O)[C@H]1C", "note": "(relative stereo) [(CH2)8 CHCH2, E-3-Methyl-4-(9-decenyl)-2-oxetanone]", "IC50": 1600},
      {"smiles": "C[C@H]1C(=O)O[C@@H]1CCCCCCCCCc1ccccc1", "note": "(relative stereo) [(CH2)9 Ph, E-3-methyl-4-(9-phenylnonyl)-2-oxetanone]", "IC50": 1200},
      {"smiles": "CCCCCCCCCC[C@@H]1OC(=O)[C@H]1C", "note": "(relative stereo) [(CH2)9CH3, E-3-Methyl-4-decyl-2-oxetanone]", "IC50": 250},
      {"smiles": "CC(CC(C)CCCCC1OC(=O)C1CO)=NNc1ccc(Br)cc1", "note": "(stereo not shown) [8-(3-hydroxymethyl-4-oxo-2-oxetanyl)-4-methyl-2-(4-bromophenylhydrazono)-octane]", "IC50": 800},
      {"smiles": "CC(=O)CC(C)CCCCC1OC(=O)C1CO", "note": "(stereo not shown) [8-(3-hydroxymethyl-4-oxo-2-oxetanyl)-4-methyl-2-octanone]", "IC50": 1600},
      {"smiles": "COCC1C(=O)OC1CCCCC(C)CC(C)OC", "note": "(stereo not shown) [8-(3-methoxymethyl-4-oxo-2-oxetanyl)-4-methyl-2-methoxyoctane]", "IC50": 5500},
      {"smiles": "COCC1C(=O)OC1CCCCC(C)CC(C)=O", "note": "(stereo not shown) [8-(3-methoxymethyl-4-oxo-2-oxetanyl)-4-methyl-2-octanone]", "IC50": 1700},
      {"smiles": "CC(=CC(=O)O)C1OC1(C)CC(C)CCCCC1OC(=O)C1CO", "note": "(stereo not shown) [11-(3-hydroxymethyl-4-oxo-2-oxetanyl)-4,5-oxiranyl-3,5,7-trimethyl-2-undecenoic acid]", "IC50": 100},
      {"smiles": "COC(=O)C=C(C)C(O)C(C)(O)CC(C)CCCCC1OC(=O)C1CO", "note": "(stereo not shown) [methyl 11-(3-hydroxymethyl-4-oxo-2-oxetanyl)-4,5-dihydroxy-3,5,7-trimethyl-2-undecenoate]", "IC50": 1100},
      {"smiles": "COC(=O)C=C(C)C1OC1(C)CC(C)CCCCC1OC(=O)C1CO", "note": "(stereo not shown) [methyl 11-(3-hydroxymethyl-4-oxo-2-oxetanyl)-4,5-oxiranyl-3,5,7-trimethyl-2-undecenoate]", "IC50": 80},
      {"smiles": "COCC1C(=O)OC1CCCCC(C)CC(C)(O)C(O)C(C)=CC(=O)OC", "note": "(stereo not shown) [methyl 11-(3-methoxymethyl-4-oxo-2-oxetanyl)-4,5-dihydroxy-3,5,7-trimethyl-2-undecenoate]", "IC50": 1900}
    ]}
  ]
}
